We go through four compounds from ChEMBL document CHEMBL3046608, “Efficient isolation of catechins from green tea and characterization of interaction property of catechins with proteins by HPLCUV/DAD combined with ultrafiltration” (Med Chem Res, 2012).

The species entered for data set [1] is Rattus norvegicus. The experiment in a line: Binding affinity to Rattus norvegicus Wistar (rat) pancreatic membrane protein by ultrafiltration-HPLC-UV/DAD method.
Data set [2] concerns the target T1, Albumin (Homo sapiens, UniProt P02768). Briefly: Binding affinity to 0.6 mM Homo sapiens (human) serum albumin by ultrafiltration-HPLC-UV/DAD method. The format is ADME.
The target of data set [3] is T1, Albumin. The experiment in a line: Binding affinity to 0.06 mM Homo sapiens (human) serum albumin by ultrafiltration-HPLC-UV/DAD method. In kind it is ADME.
Data set [4] is described as follows: Diluted plasma protein binding in Rattus norvegicus Wistar (rat) by ultrafiltration-HPLC-UV/DAD method. The settings on record: read-out: PPB (converted). The format is ADME, cell-free.
Data set [5] can be described thus: (§1) Total plasma protein binding in Rattus norvegicus Wistar (rat) by ultrafiltration-HPLC-UV/DAD method. The format is ADME, cell-free. The note with it: Wistar, read-out: PPB (converted).
Data set [6] in a line: Diluted plasma protein binding in Homo sapiens (human) by ultrafiltration-HPLC-UV/DAD method. In kind it is ADME, cell-free. The settings on record: read-out: PPB (converted).
Data set [7] can be described thus: (§2) Total plasma protein binding in Homo sapiens (human) by ultrafiltration-HPLC-UV/DAD method. The format is ADME, cell-free. The settings on record: read-out: PPB (converted).
The next data set concerns Lipid bilayer. Briefly: Binding affinity to Rattus norvegicus Wistar (rat) pancreatic phospholipid membrane by ultrafiltration-HPLC-UV/DAD method.
Data set [8] relates to Plasma. Described as §1. The format is ADME, cell-free.
The subject of data set [9] is Plasma. Described as §2. The format is ADME, cell-free.
Data set [10] is filed under the species Rattus norvegicus. The experiment in a line: Selectivity ratio of binding affinity to Rattus norvegicus Wistar (rat) pancreatic membrane protein to Rattus norvegicus Wistar (rat) pancreatic phospholipid membrane.

T1 sequence (P02768 whole entry): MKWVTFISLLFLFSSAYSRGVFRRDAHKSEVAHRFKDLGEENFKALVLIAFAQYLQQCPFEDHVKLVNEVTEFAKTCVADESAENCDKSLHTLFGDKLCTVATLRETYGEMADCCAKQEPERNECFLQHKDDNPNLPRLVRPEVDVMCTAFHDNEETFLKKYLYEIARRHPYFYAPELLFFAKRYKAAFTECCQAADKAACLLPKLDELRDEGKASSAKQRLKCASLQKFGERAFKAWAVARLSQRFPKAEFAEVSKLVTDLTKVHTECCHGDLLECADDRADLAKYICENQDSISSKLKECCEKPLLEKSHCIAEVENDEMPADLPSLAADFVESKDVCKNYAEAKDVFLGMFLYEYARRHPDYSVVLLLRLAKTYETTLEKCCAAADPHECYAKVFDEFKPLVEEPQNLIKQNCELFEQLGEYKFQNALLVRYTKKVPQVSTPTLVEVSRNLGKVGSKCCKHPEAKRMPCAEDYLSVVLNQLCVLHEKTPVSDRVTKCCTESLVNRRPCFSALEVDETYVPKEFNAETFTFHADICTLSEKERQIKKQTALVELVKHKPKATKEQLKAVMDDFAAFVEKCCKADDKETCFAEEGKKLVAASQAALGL

In the case of `Oc1cc(O)c2c(c1)O[C@@H](c1ccc(O)c(O)c1)[C@H](O)C2` [(-)-CATECHIN], the Activity in the data set listed under Rattus norvegicus [1] came out at 36.9%; at Albumin [2], 65.6%; at Albumin [3], 30.9%. In addition, the fraction unbound was 0.55 in data set [4], 0.15 in data set [5], 0.55 in data set [6] and 0.15 in data set [7].

Turning to `Cn1c(=O)c2c(ncn2C)n(C)c1=O` [CAFFEINE], the Activity in the data set on Lipid bilayer is 62.8%; at Albumin [2], 72.7%; on Albumin [3] it was 58.4%. For the same compound, the PPB in the data set on Plasma [8] and in the data set with Plasma [9] was 80% in each case.

Turning to `O=C(O[C@@H]1Cc2c(O)cc(O)cc2O[C@@H]1c1ccc(O)c(O)c1)c1cc(O)c(O)c(O)c1` [EPICATECHIN GALLATE], in the data set listed under Rattus norvegicus [10], the Ratio worked out at 2. Besides, the Activity in the data set with Lipid bilayer was determined as 91.5%; in the data set filed under Rattus norvegicus [1], 39.2%; on Albumin [2] it was 85.8%; on Albumin [3] it was 69.5%. The fraction unbound in data set [5] and in [7] was 0.15 throughout.

On to `O=C(O[C@@H]1Cc2c(O)cc(O)cc2O[C@@H]1c1cc(O)c(O)c(O)c1)c1cc(O)c(O)c(O)c1` [EPIGALOCATECHIN GALLATE], for which the Activity in the data set with Lipid bilayer turned out to be 78.8%; in the data set listed under Rattus norvegicus [1] it was 37.4%; on Albumin [2] it was 85.2%; on Albumin [3], 68.7%. For the same compound, the fraction unbound in data set [5] and in [7] was 0.15 throughout.
